# According to US20250381176A1, “SCD1 INHIBITORS FOR TREATING LIVER DISEASE” (MODULATION THERAPEUTICS, INC., priority 2022, published 2025):
# “Also recorded” adds a separate entry of the source.
# How the values were obtained:
# [1] = tested on: SCD1 mRNA; conditions: cited from earlier work
# [2] = biological target: T1, SCD1 (Homo sapiens, UniProt O00767); experiment: SCD1 enzyme inhibition (conversion of 13C18-stearoyl CoA to 13C18-oleoyl, LC-MS/MS, liver microsomes); type: biochemical
# T1 construct: conversion of ^13C18-stearoyl CoA to ^13C18-oleoyl using LC-MS/MS in liver microsomes; from tissue; host or cells: liver microsomes
# T1 sequence (O00767 1-359): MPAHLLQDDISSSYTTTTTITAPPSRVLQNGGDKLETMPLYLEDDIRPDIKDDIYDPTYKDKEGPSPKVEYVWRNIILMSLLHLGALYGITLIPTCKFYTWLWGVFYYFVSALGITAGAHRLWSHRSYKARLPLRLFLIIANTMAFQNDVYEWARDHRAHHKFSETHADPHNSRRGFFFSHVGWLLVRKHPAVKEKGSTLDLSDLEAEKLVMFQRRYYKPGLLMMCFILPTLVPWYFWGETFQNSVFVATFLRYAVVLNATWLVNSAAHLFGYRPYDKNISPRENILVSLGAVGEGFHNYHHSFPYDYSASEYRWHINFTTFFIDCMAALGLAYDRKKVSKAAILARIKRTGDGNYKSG
# [3] = tested on: known kinases; experiment: Off-target reactivity with kinases; type: biochemical
# [4] = tested on: C57BL6/J male mice fed on a Western Diet; experiment: Western Diet-induced liver steatosis in mice, Compound 1 at 2 mg/kg IP for 10 days; type: in vivo
# Protocol: The study was performed with C57BL6/J male mice, placed on a Western Diet for 4 months, and treated for 10 days IP with Compound 1 (2 mg/kg−N=3; *P<0.05)
# [5] = Oral PK in mice (Table 1); type: in vivo; conditions: mouse, plasma, C57BL/6 mice, 10 mg/kg oral gavage
# Protocol: Serum chemistry and histochemical analysis is done for both the Western Diet and MCD mouse models. Body weight and Echo-MRI is used to determine lean muscle, fat, and water content of the mice. At the end of the study, the animals are fasted overnight, and blood samples are collected for serum chemistry. A full panel of liver and metabolite biomarkers are assessed. This standard panel includes triglycerides and total cholesterol, triglycerides (TG), ALP, ALT, AST, Creatinine kinase, amylase, lipase, total bilirubin, LDH, as well as calcium, bicarbonate, potassium and sodium. Liver function tests from this panel include Aspartate aminotransferase level (AST), Alanine aminotransferase level […], GGT, Apolipoprotein, Glucose levels, and Alkaline Phosphatase (ALP), Proc-3, GAL-3, YKL-40, CK-18 and Caspase cleaved (MN-65, MN-30). Additionally, insulin, leptin and adiponectin levels are assessed as part of validation of models.
# Compound 1 quantification from mouse plasma is performed using LC-MS/MS on ExionLC system equipped with Kinetex XB-C18, 2.1×50 mm (Phenomenex 00B-4496-AN) column coupled with AB Sciex 5500 QTrap instrument (equipped with TurboIonspray ionization source and Analyst software), with Acetonitrile/water/0.1% v/v formic acid as mobile phase. Blood samples collected are centrifuged at 1300 g, 2-8° C., ≥10 minutes and the collected plasma are stored either on ice (less than 1 hour) or at −80° C. until further processing. Predetermined quantities of plasma are vortexed with ice-cold acetonitrile to precipitate the protein content and centrifuged at 1300 g, 2-8° C., ≥10 minutes. Supernatant is taken in a labelled vial and evaporated at 40° C. under a gentle stream of nitrogen. The precipitates are reconstituted in LC-MS grade methanol and centrifuged at 1300 g, 2-8° C., ≥10 minutes. The supernatant is sampled for LC-MS/MS analysis. The concentration of Compound 1 is estimated by standard curve developed from plasma standards spiked with deuterium labeled Compound 1 as internal standard. Deuterium labeled Compound 1 is on-hand. In some embodiments, deuterium labeled Compound 1 has the following structure: […]
# [6] = Oral PK in rats (Table 1); type: in vivo; conditions: plasma, Sprague Dawley rat, 12.5 mg/kg oral gavage
# [7] = Oral PK in dogs (Table 1); type: in vivo; conditions: dog, plasma, canine, 20 mg/kg oral gavage
# [8] = Non-GLP pharmacokinetic (PK) and toxicokinetic (TK) studies; type: in vivo, mice, rats and dogs
# [9] = Oral tolerability in male and female rats; type: in vivo
# [10] = 14-day repeat oral dosing toxicity/toxicokinetics in dogs; type: in vivo
# Protocol: Healthy beagles (Canis lupis familiaris) were dosed daily (oral gavage) for 14 days, and blood was collected on day 15.
# A dosing regimen has been determined for Compound 1. Single dose and 7-day dosing non-GLP toxicity has been performed in rats and dogs and GLP toxicity in dogs 14 days repeat dosing. […] Dose conversion has been done via allometry based on body surface area.
# These issues were attributed to atrophy of the Meibomian gland (the specialized sebaceous gland of the eyelid—see, e.g., FIG. 6). […] Mitigation the sequelae of events that occur due to dry eye is achieved by prophylactic administration of lipid eye drops and clinical eye exam every 14 days during a clinical trial.
# [11] = meta-analysis, off-label use; cited from earlier work
# [12] = Compound 1 alone, Western Diet mice
# [13] = 4 hour, read-out: Drug in Plasma, 4 hour
# [14] = 8 hour, read-out: Drug in Plasma, 8 hour
# [15] = 24 hour, read-out: Drug in Plasma, 24 hour
smiles,measurement,setting,value
CCCCCCCCCCCCCCCCCCCC(=O)N[C@H]1CC[C@@]2(C)[C@@H](C1)C[C@@H](O)[C@@H]1[C@@H]2C[C@H](O)[C@]2(C)[C@@H]([C@H](C)CCC(=O)O)CC[C@@H]12 [Aramchol],SCD1 mRNA expression levels,[1],reduces expression of the mRNA for SCD1; also recorded: downregulates SCD1; also recorded: reduces SCD1 mRNA expression levels
CNC(=O)c1ccnc(NC(=O)N2CCC(Oc3ccccc3Cl)CC2)c1 [Compound 1],mode of SCD1 inhibition,[2],inhibits enzymatic activity competitively; also recorded: competitive inhibition; also recorded: reversible
same,IC50,"[2]; 13C18-stearoyl CoA to 13C18-oleoyl, LC-MS/MS, liver microsomes, read-out: IC50 for blocking SCD1 enzymatic activity",1.9 nM
same,off-target reactivity with kinases,[3],does not significantly react off-target with any known kinases
same,plasma glucose,[4]; [12],does not reduce
same,plasma triglycerides,[4]; [12],does not reduce
same,liver steatosis,"[4]; Western Diet 4 months, 2 mg/kg IP 10 days, H&E quantification, N=3, 2 mg/kg",reversal of liver steatosis; also recorded: significant reduction in liver steatohepatitis; also recorded: significantly reduced liver steatosis; also recorded: reduces liver steatosis
same,liver function plasma markers / serum chemistry (ALP and BUN levels),"[4]; Western Diet 4 months, 2 mg/kg IP 10 days, N=3, 2 mg/kg",Significant attenuation of liver damage; also recorded: improved liver function plasma markers; also recorded: significantly improves liver function tests
same,efficacious dose for NASH,[4]; preliminary data,2 mg/kg
same,AUC(0-t),[5],20900 ng·h/mL
same,Cmax,[5],4320 ng/mL
same,concentration at 4 h,[5]; [13],~3000 ng/mL
same,concentration at 8 h,[5]; [14],~900 ng/mL
same,concentration at 24 h,[5]; [15],~25 ng/mL
same,AUC(0-t),[6],96400 ng·h/mL
same,Cmax,[6],11600 ng/mL
same,Tmax,[6],30 min
same,concentration at 4 h,[6]; [13],8920 ng/mL
same,concentration at 8 h,[6]; [14],4130 ng/mL
same,concentration at 24 h,[6]; [15],437 ng/mL
same,AUC(0-t),[7],90500 ng·h/mL
same,Cmax,[7],12500 ng/mL
same,Tmax,[7],60 min
same,concentration at 4 h,[7]; [13],8310 ng/mL
same,concentration at 8 h,[7]; [14],3200 ng/mL
same,concentration at 24 h,[7]; [15],212 ng/mL
same,oral bioavailability,"[8]; in vivo, po",good oral bioavailability; also recorded: favorable oral bioavailability; also recorded: orally bioavailable
same,tolerability,"[8]; mice, rats and dogs",well-tolerated
same,induction of liver enzymes,[9]; oral 50-300 mg/kg,does not induce liver enzymes
same,tolerability,[9]; oral dose range 50-300 mg/kg,well tolerated
same,"chemistry, urinalysis, electrocardiograph and hematological parameters vs vehicle control",[10]; 14-day GLP dog study,no substantial differences
same,reversibility of eye damage,[10]; 14-day recover dogs (2M/2F),Most of the damage to eyes was reversible
same,WBC,"[10]; beagles, daily oral gavage 14 days",no dramatic changes
same,liver enzymes or cholesterol levels,"[10]; beagles, daily oral gavage 14 days, blood on day 15",no significant changes
same,MTD at 14 days,"[10]; both sexes, beagle, dog, in vivo, dogs, oral, read-out: maximum tolerated dose (MTD)",20 mg/kg
same,therapeutic window for the treatment of NASH,"[10]; dog, in vivo",wide therapeutic window
same,ophthalmic observations,[10]; dogs at the maximum tolerated doses,inflammation of the ocular surface with occasional corneal ulceration and low intraocular pressure
same,dose limiting toxicity,"[10]; dogs, 14-day repeat dosing, high doses",ocular inflammation
CCc1ccc(CCOc2ccc(CC3SC(=O)NC3=O)cc2)nc1 (stereo not drawn) [pioglitazone],efficacy in human NAFLD,[11],efficacious in human NAFLD
